Experimental data from patent publication US7666446B2, “Oral formulation for delivery of poorly absorbed drugs” (ProCarrier, Inc., priority 2004, dated 2010).
Read-outs that look alike come from different tables or passages of the source.

Columns and labels:
[1] = Plasma calcitonin after intraduodenal calcitonin/PEP (ELISA); format: in vivo; conditions: male, Sprague-Dawley, rat, rats, read-out: Average plasma concentration of Calcitonin
Experimental: (§1) The abdominal muscle was sutured under the skin. […] Four rats were in each treatment group. […]
Plasma was analyzed by ELISA according to methods well known in the art.

non-diabetic rats = assay: Serum glucose after intraduodenal insulin/PEP in non-diabetic rats; format: in vivo; conditions: insulin 50 IU/kg in carrier (100 units)
Source text: as §1

diabetes induced rats = assay: Serum glucose after intraduodenal insulin/PEP in diabetic rats; format: in vivo; conditions: insulin 50 IU/kg in carrier (100 units)
Source text: as §1

[2] = diabetic rats, intraduodenal, insulin 50 IU/kg in carrier (100 units)
Source text: as §1

[3] = Plasma netilmicin after intraduodenal netilmicin/PEP (HPLC); format: in vivo; conditions: male, Sprague-Dawley, rat, rats
Experimental: as §1
(§2) Netilmicin solution was mixed with a solution of methylcellulose, and this mixture was added to solutions of glucosamine and sucrose stearate in water before administration to rats. […] The contents of netilmicin/PEP comprised an individual dosage of 80 mg/kg netilmicin, 400 mg/kg sucrose stearate, glucosamine in a 1:4 mole ratio of netilmicin to glucosamine, and methylcellulose in a 1:0.5 mole ratio of netilmicin to methylcellulose. […] Plasma was analyzed by HPLC, and bioavailability was calculated.

[4] = Plasma isepamicin after intraduodenal isepamicin/PEP (HPLC); format: in vivo; conditions: male, Sprague-Dawley, rat, other: intraduodenal, rats
Experimental: as §1
Isepamicin solution was mixed with methylcellulose solution, and the resulting mixture was mixed with solutions of glucosamine and sucrose stearate 16 in water before administration to rats. […] The contents of isepamicin/PEP comprised an individual dosage of 75 mg/kg isepamicin, 400 mg/kg sucrose stearate, glucosamine in a 1:4 mole ratio of isepamicin to glucosamine, and methylcellulose in a 1:0.5 mole ratio of isepamicin to methylcellulose. […] Plasma was analyzed by HPLC, and bioavailability was calculated.

[5] = rat, in vivo
Experimental: To determine absorption from the intestine, male Sprague Dawley rats weighing 250-300 g with free access to water were fasted for about 18 h prior to experiments. These rats were anesthetized and maintained with Ketamine/Xylazine (([…])/(80 mg/kg)) by intraperitoneal injection. The small intestine was exposed by a midline abdominal incision. A small incision was made in the stomach to insert a polyethylene tube (i.d. 0.76 mm, o.d. 1.22 mm, Clay Adams), toward the middle duodenum, which was closed at the exposed end by a stopcock to prevent drainage of drug solution from the duodenum. Blood samples were taken with a heparinized syringe through the jugular vein catheter at predetermined time intervals. After collecting, samples were coagulated for about 90 min and then were centrifuged for 10 min at 6000 rpm. The supernatant was removed and stored at −20° C. Samples were analyzed for hGH protein levels with a Human Growth Hormone ELISA Kit (coated plate, ICN Diagnostics) according to the manufacturer's protocol.
For the controls, either glucosamine 40 mg/kg plus sucrose laurate 40 mg/kg (i.e., 100 units of carrier) or 10 mg/kg of rhGH (Advanced Protein Technologies Inc., Suwon, Korea) were administered per intraduodenum. […] To evaluate the effect of varying the amount of carrier administered, the amount of rhGH was held at 3 mg/kg rhGH and the Tmax was measured. […] In the case of intraduodenal administration, the controls were fixed at 10 units of carrier. The amount of rhGH was varied to include 1, 3, and 10 mg/kg of rhGH.
Finally, to evaluate the effectiveness of the carrier itself, the type of carrier was varied while maintaining the same level of rhGH (3 mg/kg).

[6] = Intraduodenal absorption of rhGH/PEP solutions, rhGH by ELISA (Example 3); format: in vivo, male Sprague-Dawley rats; conditions: rats, rhGH administered without PEP solution
Experimental: RhGH solutions containing a promoter (glucosamine or poly-L-lysine), an enhancer (sucrose laurate 16), and a protector (methylcellulose) were prepared in water according to the proportions set out in Table 2.
as §1

[7] = Decomposition test: rhGH concentration by ELISA after shaking; format: physicochemical
Experimental: A solution of rhGH (5 ng/mL) was prepared in 20 mM phosphate buffer. The phosphate buffer was prepared in triple-distilled, filtered water (0.22 μm filter), and its pH was adjusted to pH 7.4 with sodium hydroxide solution. Solutions of rhGH were shaken for 1 min at high speed with a vortex mixer (Scientific Industries Inc.). After shaking, samples were equilibrated for specific time intervals at room temperature. Concentrations of rhGH were then determined by ELISA according to methods well known in the art.

[8] = Plasma teicoplanin after intraduodenal teicoplanin/PEP (HPLC); format: in vivo; conditions: rats
Experimental: as §1
as §2, with “Teicoplanin” for “Netilmicin”, “teicoplanin/PEP” for “netilmicin/PEP”, “64” for “80”, “teicoplanin,” for “netilmicin,”, “teicoplanin” for “netilmicin”

[9] = Plasma aztreonam after intraduodenal aztreonam/PEP (HPLC); format: in vivo; conditions: male, Sprague-Dawley, rat, rats
Experimental: as §1
Aztreonam solution (containing arginine as a pH adjuster) was mixed with a solution of methylcellulose, and this mixture was added to solutions of glucosamine and sucrose palmitate in water before administration to rats. […] The contents of aztreonam/PEP comprised an individual dosage of 40 mg/kg aztreonam, 400 mg/kg sucrose palmitate, glucosamine in a 1:4 mole ratio of aztreonam to glucosamine, methylcellulose in a 1:0.5 mole ratio of aztreonam to methylcellulose, and arginine in a 1:0.6 mole ratio of aztreonam to arginine. […] Plasma was analyzed by HPLC, and bioavailability was calculated.

Question: For `CC(C)C[C@H](NC(=O)[C@H](CCCCN)NC(=O)CNC(=O)[C@H](CC(C)C)NC(=O)[C@@H](NC(=O)[C@@H]1CSSC[C@H](N)C(=O)N[C@@H](CO)C(=O)N[C@@H](CC(N)=O)C(=O)N[C@@H](CC(C)C)C(=O)N[C@@H](CO)C(=O)N[C@@H]([C@@H](C)O)C(=O)N1)C(C)C)C(=O)N[C@@H](CO)C(=O)N[C@@H](CCC(N)=O)C(=O)N[C@@H](CCC(=O)O)C(=O)N[C@@H](CC(C)C)C(=O)N[C@@H](Cc1c[nH]cn1)C(=O)N[C@@H](CCCCN)C(=O)N[C@@H](CC(C)C)C(=O)N[C@@H](CCC(N)=O)C(=O)N[C@H](C(=O)N[C@@H](Cc1ccc(O)cc1)C(=O)N1CCC[C@H]1C(=O)N[C@@H](CCCNC(=N)N)C(=O)N[C@H](C(=O)N[C@@H](CC(N)=O)C(=O)N[C@H](C(=O)NCC(=O)N[C@@H](CO)C(=O)NCC(=O)N[C@H](C(=O)N1CCC[C@H]1C(N)=O)[C@@H](C)O)[C@@H](C)O)[C@@H](C)O)[C@@H](C)O` [Calcitonin], which level at 0.5 h ([1]; calcitonin/PEP 2 mg/kg calcitonin, 30 min) is on record?
Answer: 8.61 ng/mL

Question: And the level at 0.75 h ([1]; calcitonin/PEP 2 mg/kg calcitonin, 45 min)?
Answer: 10.9 ng/mL

Question: And the level at 1 h ([1]; calcitonin/PEP 2 mg/kg calcitonin, 60 min)?
Answer: 7.55 ng/mL

Question: And the level at 1.5 h ([1]; calcitonin/PEP 2 mg/kg calcitonin, 90 min)?
Answer: 3.36 ng/mL

Question: And the level at 2 h ([1]; calcitonin/PEP 2 mg/kg calcitonin, 120 min)?
Answer: 1.72 ng/mL

Question: And the level at 3 h ([1]; calcitonin/PEP 2 mg/kg calcitonin, 180 min)?
Answer: 0.69 ng/mL

Question: And the level at 4 h ([1]; calcitonin/PEP 2 mg/kg calcitonin, 240 min)?
Answer: 0.99 ng/mL

Question: And the level at 0.25 h ([1]; calcitonin/PEP (2 mg/kg calcitonin, 40 mg/kg sucrose laurate 16, glucosamine, methylcellulose), 15 min)?
Answer: 8.02 ng/mL

Question: For “insulin: insulin given with methylcellulose, sucrose laurate 16 and glucosamine (insulin/PEP composition)”, which “hypoglycemic response (serum glucose)” value (non-diabetic rats) is on record?
Answer: No significant hypoglycemic response

Question: What about the “hypoglycemic effect (serum glucose)” value (diabetes induced rats) of the same compound?
Answer: significant hypoglycemic effects were observed

Question: And the serum insulin [2]?
Answer: detected

Question: For `CCN[C@@H]1C[C@H](N)[C@@H](O[C@H]2OC(CN)=CC[C@H]2N)[C@H](O)[C@H]1O[C@H]1OC[C@](C)(O)[C@H](NC)[C@H]1O` [Netilmicin], which concentration at 60 min ([3]; other: intraduodenal, netilmicin/PEP 80 mg/kg netilmicin, 60 min) is on record?
Answer: 70700 ng/mL

Question: And the concentration at 120 min ([3]; other: intraduodenal, netilmicin/PEP 80 mg/kg netilmicin, 120 min)?
Answer: 39300 ng/mL

Question: What about the concentration at 180 min ([3]; other: intraduodenal, netilmicin/PEP 80 mg/kg netilmicin, 180 min) of the same compound?
Answer: 38900 ng/mL

Question: What about the concentration at 240 min ([3]; other: intraduodenal, netilmicin/PEP 80 mg/kg netilmicin, 240 min) of the same compound?
Answer: 35800 ng/mL

Question: What about the concentration at 360 min ([3]; other: intraduodenal, netilmicin/PEP 80 mg/kg netilmicin, 360 min) of the same compound?
Answer: 34800 ng/mL

Question: What about the concentration at 30 min ([3]; other: intraduodenal, netilmicin/PEP (80 mg/kg netilmicin, 400 mg/kg sucrose stearate, glucosamine, methylcellulose), 30 min) of the same compound?
Answer: 62100 ng/mL

Question: What about the bioavailability ([3]; netilmicin/PEP 80 mg/kg netilmicin, read-out: percent bioavailability) of the same compound?
Answer: 73%

Question: Which concentration at 60 min ([4]; isepamicin/PEP 75 mg/kg isepamicin, 60 min) does the source give for `CN[C@@H]1[C@@H](O)[C@@H](O[C@@H]2[C@@H](O)[C@H](O[C@H]3O[C@H](CN)[C@@H](O)[C@H](O)[C@H]3O)[C@@H](N)C[C@H]2NC(=O)[C@@H](O)CN)OC[C@]1(C)O` [Isepamicin] here?
Answer: 102000 ng/mL

Question: What about the concentration at 120 min ([4]; isepamicin/PEP 75 mg/kg isepamicin, 120 min) of the same compound?
Answer: 73600 ng/mL

Question: What about the concentration at 180 min ([4]; isepamicin/PEP 75 mg/kg isepamicin, 180 min) of the same compound?
Answer: 49900 ng/mL

Question: And the concentration at 240 min ([4]; isepamicin/PEP 75 mg/kg isepamicin, 240 min)?
Answer: 43900 ng/mL

Question: And the concentration at 360 min ([4]; isepamicin/PEP 75 mg/kg isepamicin, 360 min)?
Answer: 35800 ng/mL

Question: What about the concentration at 30 min ([4]; isepamicin/PEP (75 mg/kg isepamicin, 400 mg/kg sucrose stearate, glucosamine, methylcellulose), 30 min) of the same compound?
Answer: 84200 ng/mL

Question: For rhGH: recombinant human growth hormone, which Tmax ([5]; 3 mg/kg) is on record?
Answer: less than 20 min

Question: And the “absorption of rhGH” value ([5]; 3 mg/kg)?
Answer: increased absorption

Question: And the bioavailability ([5]; 3 mg/kg)?
Answer: 7.1%

Question: What about the “peak serum rhGH concentration” value ([5]; sc, 0.1 mg/kg) of the same compound?
Answer: 73 ng/mL

Question: And the rhGH in serum [6]?
Answer: not detected

Question: And the “Concentration rhGH” value ([7]; 0 min, 5 ng/mL rhGH, phosphate buffer pH 7.4)?
Answer: 5 ng/mL

Question: And the “Concentration rhGH” value ([7]; 1 min after shaking, room temperature)?
Answer: 1.05 ng/mL

Question: And the “Concentration rhGH” value ([7]; 30 min after shaking, room temperature)?
Answer: 0.65 ng/mL

Question: And the “Concentration rhGH” value ([7]; 60 min after shaking, room temperature)?
Answer: 0.43 ng/mL

Question: And the “Concentration rhGH” value ([7]; 90 min after shaking, room temperature)?
Answer: 0.40 ng/mL

Question: Which percent bioavailability ([8]; teicoplanin/PEP 64 mg/kg teicoplanin) does the source give for Teicoplanin here?
Answer: 35.07%

Question: And the “Average plasma concentration Teicoplanin” value ([8]; teicoplanin/PEP 64 mg/kg teicoplanin, 60 min)?
Answer: 9.50 µg/mL

Question: And the “Average plasma concentration Teicoplanin” value ([8]; teicoplanin/PEP 64 mg/kg teicoplanin, 120 min)?
Answer: 10.36 µg/mL

Question: And the “Average plasma concentration Teicoplanin” value ([8]; teicoplanin/PEP 64 mg/kg teicoplanin, 180 min)?
Answer: 12.22 µg/mL

Question: And the “Average plasma concentration Teicoplanin” value ([8]; teicoplanin/PEP 64 mg/kg teicoplanin, 240 min)?
Answer: 11.29 µg/mL

Question: And the “Average plasma concentration Teicoplanin” value ([8]; teicoplanin/PEP (64 mg/kg teicoplanin, 400 mg/kg sucrose stearate, glucosamine, methylcellulose), 30 min)?
Answer: 11.14 µg/mL

Question: With `C[C@H]1[C@H](NC(=O)/C(=N\OC(C)(C)C(=O)O)c2csc(N)n2)C(=O)N1S(=O)(=O)O` [Aztreonam] as the compound, how does the concentration at 60 min ([9]; other: intraduodenal, aztreonam/PEP 40 mg/kg aztreonam, 60 min) read?
Answer: 97000 ng/mL

Question: What about the concentration at 90 min ([9]; other: intraduodenal, aztreonam/PEP 40 mg/kg aztreonam, 90 min) of the same compound?
Answer: 87900 ng/mL

Question: What about the concentration at 120 min ([9]; other: intraduodenal, aztreonam/PEP 40 mg/kg aztreonam, 120 min) of the same compound?
Answer: 89600 ng/mL

Question: And the concentration at 180 min ([9]; other: intraduodenal, aztreonam/PEP 40 mg/kg aztreonam, 180 min)?
Answer: 67000 ng/mL

Question: And the concentration at 240 min ([9]; other: intraduodenal, aztreonam/PEP 40 mg/kg aztreonam, 240 min)?
Answer: 55200 ng/mL

Question: And the concentration at 30 min ([9]; other: intraduodenal, aztreonam/PEP (40 mg/kg aztreonam, 400 mg/kg sucrose palmitate, glucosamine, methylcellulose, arginine), 30 min)?
Answer: 95400 ng/mL

Question: And the bioavailability ([9]; aztreonam/PEP 40 mg/kg aztreonam, read-out: percent bioavailability)?
Answer: 91.1 ± 14.6%
